Measured values from ChEMBL document CHEMBL1201862, “PubChem BioAssay data set” (2004).
Each block holds one compound with its values, some of them ahead of it. Activity calls are given as the source filed them. Cut-off read from the data, not from the text of the source, for most assays here: actives have a measured IC50 and inactives only a lower limit.

Assays:
[1] = target: DNA dC->dU-editing enzyme APOBEC-3A (Homo sapiens, UniProt P31941); assay: Dose Response confirmation of small molecule APOBEC3A DNA Deaminase Inhibitors via a fluorescence-based single-stranded DNA deaminase assay. [Related pubchem assays (depositor defined):AID493011, AID493024]; type: functional
[2] = cytotoxicity in HPDE-C7 cells, cell-based, fluorescence, HTS (AID 430); type: functional; details: Homo sapiens
[3] = cytotoxicity in KRAS-transformed pancreatic duct cells, primary screen, cell-based, fluorescence, HTS (AID 431); type: functional; details: Homo sapiens;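 note: cell line used: HPDE-C7K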
Bcl-2-like protein 10 = target: T1, Bcl-2-like protein 10 (Homo sapiens, UniProt Q9HD36); assay: displacers of TR3 peptide from Bcl-B, primary screen, selectivity assay for Bfl-1 inhibitor project, biochemical, fluorescence polarization, FITC-TR3 peptide (AID 748);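 note: fluorescence polarization from a fluorescein-labelled TR3 peptide binding purified Bcl-B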
T1 sequence (Q9HD36 whole entry): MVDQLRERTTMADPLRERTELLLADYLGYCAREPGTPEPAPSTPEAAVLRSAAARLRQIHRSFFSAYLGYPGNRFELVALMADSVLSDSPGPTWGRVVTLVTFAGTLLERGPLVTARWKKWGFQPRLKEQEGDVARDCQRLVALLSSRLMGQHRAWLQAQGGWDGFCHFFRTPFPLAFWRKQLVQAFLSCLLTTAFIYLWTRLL

Estrogen receptor beta [4] = target: T2, Estrogen receptor beta (Homo sapiens, UniProt Q92731);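 note: recombinant ER-beta bound to coactivator SRC1 peptide in presence of estradiol agonist; inhibitors block coactivator peptide binding and lower the FRET signal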
Estrogen receptor beta [5] = target: T2, Estrogen receptor beta; assay: ERβ–SRC-3 coactivator interaction inhibitors, confirmation, orthogonal assay, biochemical, ELISA, streptavidin-HRP readout (AID 1060)
[6] = target: DNA dC->dU-editing enzyme APOBEC-3G (Homo sapiens, UniProt Q9HC16); type: functional;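 note: Dose-response counterscreen measuring inhibition of APOBEC3G DNA deaminase activity, run while confirming APOBEC3A inhibitors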
Protein Tat = target: T3, Protein Tat (Human immunodeficiency virus type 1 group M subtype B (isolate HXB2)(HIV-1), UniProt P04608); type: functional;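 note: tat binding to TAR RNA read out by fluorescence polarization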
T3 sequence (P04608 whole entry): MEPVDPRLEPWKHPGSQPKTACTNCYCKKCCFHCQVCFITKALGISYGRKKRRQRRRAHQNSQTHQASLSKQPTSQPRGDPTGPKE

Estrogen receptor = target: T4, Estrogen receptor (Homo sapiens, UniProt P03372);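 note: potency for inhibiting coactivator peptide recruitment to the receptor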
T4 sequence (P03372 whole entry): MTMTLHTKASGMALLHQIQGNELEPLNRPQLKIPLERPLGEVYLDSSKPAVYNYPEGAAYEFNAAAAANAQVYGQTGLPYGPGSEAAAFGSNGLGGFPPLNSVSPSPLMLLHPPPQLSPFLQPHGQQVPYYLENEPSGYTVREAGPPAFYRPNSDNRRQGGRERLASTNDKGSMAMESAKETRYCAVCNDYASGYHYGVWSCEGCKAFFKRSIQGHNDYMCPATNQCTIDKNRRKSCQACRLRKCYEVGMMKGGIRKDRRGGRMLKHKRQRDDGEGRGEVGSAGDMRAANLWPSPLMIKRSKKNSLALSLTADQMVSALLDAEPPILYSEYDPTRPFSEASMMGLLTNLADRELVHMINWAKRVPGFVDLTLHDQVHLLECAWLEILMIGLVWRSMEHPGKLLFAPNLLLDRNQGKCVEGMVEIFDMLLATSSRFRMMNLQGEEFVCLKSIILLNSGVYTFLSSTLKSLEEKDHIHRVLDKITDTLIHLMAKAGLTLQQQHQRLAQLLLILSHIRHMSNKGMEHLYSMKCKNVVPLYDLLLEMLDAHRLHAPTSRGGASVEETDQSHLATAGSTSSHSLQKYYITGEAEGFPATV

[7] = target: Glyceraldehyde-3-phosphate dehydrogenase (Homo sapiens, UniProt P04406)
[8] = target: T5, Alkaline phosphatase, tissue-nonspecific isozyme (Homo sapiens, UniProt P05186); assay: human TNAP enzyme inhibitors, SAR follow-up, biochemical, luminescent, dose response (AID 1056)
T5 sequence (P05186 whole entry): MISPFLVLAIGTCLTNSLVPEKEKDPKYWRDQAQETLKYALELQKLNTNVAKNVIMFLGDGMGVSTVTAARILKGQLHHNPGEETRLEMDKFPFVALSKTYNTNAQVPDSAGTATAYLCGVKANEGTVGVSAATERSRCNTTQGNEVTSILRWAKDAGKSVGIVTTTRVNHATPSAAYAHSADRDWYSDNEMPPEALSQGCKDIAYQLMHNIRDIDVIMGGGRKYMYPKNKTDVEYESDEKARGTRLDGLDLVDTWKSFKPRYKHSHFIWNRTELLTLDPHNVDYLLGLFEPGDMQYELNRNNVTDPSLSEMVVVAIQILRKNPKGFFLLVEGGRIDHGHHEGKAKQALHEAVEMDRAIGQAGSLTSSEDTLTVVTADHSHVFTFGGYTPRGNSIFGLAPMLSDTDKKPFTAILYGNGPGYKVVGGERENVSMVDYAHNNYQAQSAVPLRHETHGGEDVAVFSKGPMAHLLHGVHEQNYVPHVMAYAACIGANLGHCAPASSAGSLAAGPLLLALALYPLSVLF

[9] = target: Alkaline phosphatase, placental type (Homo sapiens, UniProt P05187); assay: PLAP enzyme inhibitors, confirmation, biochemical, luminescence (AID 1512); type: functional
[10] = target: Polyadenylate-binding protein 1 (Homo sapiens, UniProt P11940); assay: PABP poly(A) RNA binding inhibitors, primary screen, biochemical, fluorescence polarization, uHTS (AID 2014)
[11] = target: Eukaryotic translation initiation factor 4H (Homo sapiens, UniProt Q15056); assay: human eIF4H binding inhibitors, primary screen, translation initiation inhibitor project, biochemical, uHTS, fluorescence polarization (AID 2012)
[12] = target: T6, Tyrosine-protein phosphatase non-receptor type 22 (Homo sapiens, UniProt Q9Y2R2); type: functional
T6 sequence (Q9Y2R2 whole entry): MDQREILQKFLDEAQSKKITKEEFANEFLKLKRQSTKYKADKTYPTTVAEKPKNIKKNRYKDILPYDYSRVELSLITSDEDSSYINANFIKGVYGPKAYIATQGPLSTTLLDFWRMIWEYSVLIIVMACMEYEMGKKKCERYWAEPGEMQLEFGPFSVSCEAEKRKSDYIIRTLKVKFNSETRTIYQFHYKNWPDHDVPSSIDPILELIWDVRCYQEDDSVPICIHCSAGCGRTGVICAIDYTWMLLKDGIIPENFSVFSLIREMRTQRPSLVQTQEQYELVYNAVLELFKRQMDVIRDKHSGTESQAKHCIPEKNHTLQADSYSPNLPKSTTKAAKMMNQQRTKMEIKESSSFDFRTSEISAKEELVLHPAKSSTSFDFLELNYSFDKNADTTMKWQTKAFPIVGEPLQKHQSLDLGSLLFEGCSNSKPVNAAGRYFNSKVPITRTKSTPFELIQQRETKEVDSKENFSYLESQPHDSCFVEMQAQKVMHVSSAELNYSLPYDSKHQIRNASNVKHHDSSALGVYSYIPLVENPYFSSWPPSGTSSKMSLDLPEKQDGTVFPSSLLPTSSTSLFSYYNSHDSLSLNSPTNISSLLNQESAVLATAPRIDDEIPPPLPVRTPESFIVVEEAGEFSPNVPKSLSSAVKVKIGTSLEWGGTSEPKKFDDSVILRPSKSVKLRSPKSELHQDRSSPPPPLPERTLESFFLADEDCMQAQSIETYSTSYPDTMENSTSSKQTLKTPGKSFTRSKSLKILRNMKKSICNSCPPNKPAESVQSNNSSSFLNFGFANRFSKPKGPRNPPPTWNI

[13] = target: T7, Tyrosine-protein phosphatase non-receptor type 7 (Homo sapiens, UniProt P35236); type: functional
T7 sequence (P35236 whole entry): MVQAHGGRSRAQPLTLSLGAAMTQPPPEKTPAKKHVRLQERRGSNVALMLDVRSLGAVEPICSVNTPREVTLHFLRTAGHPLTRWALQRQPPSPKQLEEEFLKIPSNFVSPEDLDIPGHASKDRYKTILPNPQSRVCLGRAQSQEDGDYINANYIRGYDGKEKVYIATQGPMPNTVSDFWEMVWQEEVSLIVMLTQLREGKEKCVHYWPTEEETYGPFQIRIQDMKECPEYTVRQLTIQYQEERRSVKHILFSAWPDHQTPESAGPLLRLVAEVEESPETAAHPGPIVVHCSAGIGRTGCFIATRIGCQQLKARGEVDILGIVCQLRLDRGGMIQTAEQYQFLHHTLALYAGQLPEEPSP

[14] = target: T6, Tyrosine-protein phosphatase non-receptor type 22; type: functional; remark: listed apart in the source

DNA dC->dU-editing enzyme APOBEC-3G, sequence (Q9HC16 whole entry): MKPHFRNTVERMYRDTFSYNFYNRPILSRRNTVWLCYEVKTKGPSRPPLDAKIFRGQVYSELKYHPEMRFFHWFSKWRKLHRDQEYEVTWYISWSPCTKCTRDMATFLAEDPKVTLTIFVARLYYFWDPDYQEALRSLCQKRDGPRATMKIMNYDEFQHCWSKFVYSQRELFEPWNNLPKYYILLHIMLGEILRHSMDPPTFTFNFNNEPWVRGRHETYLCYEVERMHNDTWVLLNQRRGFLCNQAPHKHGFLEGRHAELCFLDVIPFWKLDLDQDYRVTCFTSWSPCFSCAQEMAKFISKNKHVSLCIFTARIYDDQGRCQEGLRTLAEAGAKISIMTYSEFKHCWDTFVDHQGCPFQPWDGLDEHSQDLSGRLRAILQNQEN
T2 sequence (Q92731 whole entry): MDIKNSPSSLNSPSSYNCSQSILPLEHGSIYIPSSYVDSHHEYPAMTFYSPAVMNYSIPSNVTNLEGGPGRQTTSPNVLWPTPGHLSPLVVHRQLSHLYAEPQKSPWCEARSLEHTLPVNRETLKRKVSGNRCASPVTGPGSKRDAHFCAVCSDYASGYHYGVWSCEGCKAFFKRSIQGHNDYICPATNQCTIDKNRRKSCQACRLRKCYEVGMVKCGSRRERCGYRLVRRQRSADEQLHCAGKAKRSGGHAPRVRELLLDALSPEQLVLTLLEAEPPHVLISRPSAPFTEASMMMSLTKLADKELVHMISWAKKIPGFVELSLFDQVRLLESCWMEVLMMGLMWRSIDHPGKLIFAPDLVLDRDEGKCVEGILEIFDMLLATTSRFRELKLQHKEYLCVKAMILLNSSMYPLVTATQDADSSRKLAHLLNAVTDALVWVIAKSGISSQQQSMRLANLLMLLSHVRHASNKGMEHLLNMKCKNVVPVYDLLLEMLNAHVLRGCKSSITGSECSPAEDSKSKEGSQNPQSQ
DNA dC->dU-editing enzyme APOBEC-3A, sequence (P31941 whole entry): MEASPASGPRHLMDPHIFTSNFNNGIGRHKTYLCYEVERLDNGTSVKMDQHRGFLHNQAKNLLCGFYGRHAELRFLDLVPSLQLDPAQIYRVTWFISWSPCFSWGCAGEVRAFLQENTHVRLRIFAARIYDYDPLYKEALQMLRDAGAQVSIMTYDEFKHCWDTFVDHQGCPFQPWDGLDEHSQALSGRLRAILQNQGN
Polyadenylate-binding protein 1, sequence (P11940 whole entry): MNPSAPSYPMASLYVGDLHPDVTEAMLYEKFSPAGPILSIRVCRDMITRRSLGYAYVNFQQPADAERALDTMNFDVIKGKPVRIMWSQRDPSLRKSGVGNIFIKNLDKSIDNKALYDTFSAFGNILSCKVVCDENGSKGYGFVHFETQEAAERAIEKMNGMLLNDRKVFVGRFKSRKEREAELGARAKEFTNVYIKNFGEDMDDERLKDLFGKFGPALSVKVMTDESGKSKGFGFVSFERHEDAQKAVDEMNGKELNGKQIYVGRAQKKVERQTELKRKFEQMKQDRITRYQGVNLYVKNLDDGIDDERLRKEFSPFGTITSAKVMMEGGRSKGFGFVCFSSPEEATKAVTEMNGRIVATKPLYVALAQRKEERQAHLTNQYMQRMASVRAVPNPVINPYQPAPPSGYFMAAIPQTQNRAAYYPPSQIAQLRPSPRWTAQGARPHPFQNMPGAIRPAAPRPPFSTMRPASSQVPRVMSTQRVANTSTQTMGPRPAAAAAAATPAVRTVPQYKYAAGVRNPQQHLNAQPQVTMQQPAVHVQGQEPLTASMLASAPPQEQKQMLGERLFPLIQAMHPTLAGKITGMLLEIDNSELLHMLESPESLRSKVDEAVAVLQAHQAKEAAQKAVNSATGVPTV
Alkaline phosphatase, placental type, sequence (P05187 whole entry): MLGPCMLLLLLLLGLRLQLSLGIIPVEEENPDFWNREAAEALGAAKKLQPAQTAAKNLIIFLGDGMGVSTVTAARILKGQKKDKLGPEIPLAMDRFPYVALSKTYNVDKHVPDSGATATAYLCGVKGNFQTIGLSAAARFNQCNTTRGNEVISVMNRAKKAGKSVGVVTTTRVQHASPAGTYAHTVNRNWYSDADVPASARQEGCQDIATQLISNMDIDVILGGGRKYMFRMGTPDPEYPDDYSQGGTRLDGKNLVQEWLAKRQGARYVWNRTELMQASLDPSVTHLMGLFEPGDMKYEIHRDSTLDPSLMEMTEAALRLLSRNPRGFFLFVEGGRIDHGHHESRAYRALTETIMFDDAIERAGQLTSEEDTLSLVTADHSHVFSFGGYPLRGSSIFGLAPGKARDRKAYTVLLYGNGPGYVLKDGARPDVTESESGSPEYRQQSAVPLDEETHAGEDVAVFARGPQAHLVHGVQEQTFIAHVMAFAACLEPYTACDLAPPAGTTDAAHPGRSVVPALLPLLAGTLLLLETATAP
Glyceraldehyde-3-phosphate dehydrogenase, sequence (P04406 whole entry): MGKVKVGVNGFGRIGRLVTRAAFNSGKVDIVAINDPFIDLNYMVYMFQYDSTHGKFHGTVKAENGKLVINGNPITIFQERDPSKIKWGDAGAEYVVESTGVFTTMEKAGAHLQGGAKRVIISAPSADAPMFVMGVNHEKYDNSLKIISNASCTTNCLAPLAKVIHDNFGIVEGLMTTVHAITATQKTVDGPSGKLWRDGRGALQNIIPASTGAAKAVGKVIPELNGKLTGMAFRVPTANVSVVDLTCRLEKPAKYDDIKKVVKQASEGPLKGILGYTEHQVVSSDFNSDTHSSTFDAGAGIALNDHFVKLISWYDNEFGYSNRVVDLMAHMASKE

SMILES: COc1ccc2c(c1)c(=O)oc1cc(OCC(=O)N3CCC(C)CC3)ccc12
IC50 [1]: 21.6 µM (active)
EC50 [2]: > 20 µM (not active)
EC50 [3]: > 20 µM (not active)
IC50 (Bcl-2-like protein 10): 31.8 µM (active)
IC50 (Estrogen receptor beta [4]): 5.31 µM (active)
IC50 (Estrogen receptor beta [5]): 14.3 µM (not active)
IC50 [6]: > 100 µM (inactive)
IC50 (Protein Tat): > 100 µM (active)
IC50 (Estrogen receptor): 11.7 µM (active)

IC50 [7]: > 100 µM (not active)
IC50 [8]: 14.4 µM (active)
IC50 [9]: > 100 µM (inactive)
SMILES: Cc1n[nH]c2c1C(=O)CC(c1ccc(F)cc1)C2 (centres undefined)

SMILES: CCCn1c2c(c(=N)c3c1CCC3)CCC2
IC50 [1]: 2.76 µM (active)
IC50 [10]: 4.08 µM (active)
IC50 [11]: > 100 µM (inactive)
IC50 [6]: 2.66 µM (active)

IC50 [12]: > 79.4 µM (inactive)
IC50 [13]: > 79.4 µM (inactive)
IC50 [14]: > 79.4 µM (inactive)
SMILES: CCNS(=O)(=O)c1cc(S(C)(=O)=O)ccc1Cl
